Assay results: patent US10440955B2, “Methods comprising a biocidal polyamine” (Curza Global, LLC, priority 2013, dated 2019)
Values after ≈ are worked out from the molar mass of the structure shown.

Experiments:
P. aeruginosa biofilms [1] = assay: MBEC, MBEC Inoculation Tray (Innovotech), to 10^2 CFU/peg in 24 hours; format: cell-based; conditions: Pseudomonas aeruginosa; Table 3A c5; group head missing, probably MBEC; read-out: MICs (μg/mL): P. aeruginosa (second P. aeruginosa)
From the text: To determine the MBEC of each polyamine compound, the MBEC Inoculation Tray by Innovotech, formerly known as the Calgary biofilm device, was used. Within this device, biofilms grow on the surface of polystyrene pegs, 96 of which are attached to a lid. These pegs are inserted into a flat bottom 96-well plate. In this instance, the MBEC of a molecule was defined as the concentration of compound (in μg/mL) required to reduce 10^5 or 10^6 CFU/peg (biofilm levels varied by isolate) to 10^2 CFU/peg in a 24-hour period.
Following the manufacturer's guidelines, biofilms were grown on the surface of each peg by first making a 0.5 McFarland of each isolate. The 0.5 McFarland was diluted 1:100 in CAMHB. Into each well of a flat bottom 96-well plate, 150 μL of broth were pipetted. The plate was shaken at 100 rpm for 24 hours (P. aeruginosa and A. baumannii) or 48 hours (MRSA). The pegs were then placed into a separate flat bottom 96-well plate for 10 seconds with 200 μL of phosphate buffered saline (PBS) in each well to remove nonadherent cells. The lid was then placed into a 96-well plate that contained varying concentrations of antimicrobial with 200 μL per well. The plate was incubated for 24 hours at 37° C. after which time 100 μL of broth were plated on TSA. TSA plates were incubated 24 hours at 37° C. and the number of CFU counted to calculate the CFU/peg. […]

P. aeruginosa = assay: MIC, 96-well CAMHB, 10^5 to 10^2 CFU/mL in 24 hours; format: cell-based, Pseudomonas aeruginosa; conditions: Pseudomonas aeruginosa; Table 3A c2; read-out: MICs (μg/mL): P. aeruginosa
Outline: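 Broth microdilution in CAMHB with about 5×10^5 CFU/mL inoculum, incubated 24 h at 37 °C with graded polyamine compound concentrations. Surviving CFU/mL determined by plating each well on TSA for 24 h at 37 °C; n=8 per concentration.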

P. aeruginosa biofilms [2] = assay: EBEC, high number biofilms on PEEK membranes, 10^9 to 10^2 CFU/PEEK membrane in 24 hours; format: cell-based; conditions: Pseudomonas aeruginosa; Table 3B c3; group head missing; read-out: MICs (μg/mL) II: P. aeruginosa
Description: In addition to determining the MIC and the MBEC of polyamine compounds against planktonic bacteria and low number biofilms, our group wanted to determine the efficacy of polyamine compounds against high number biofilms. To do so, biofilms were grown on the surface of polyetheretherketone (PEEK) membranes using a membrane biofilm reactor. This reactor is similar to the CDC biofilm reactor, but rather than growing biofilms on coupon surfaces, the reactor was modified to hold PEEK membranes. In short, to grow biofilms within this system, 500 mL of brain heart infusion (BHI) broth were inoculated with 1 mL of a 0.5 McFarland. The reactor was placed on a hot plate set at 34° C. and the bacteria were grown under batch conditions for 24 hours. Following this protocol, biofilms typically grow to 10^9 CFU/PEEK membrane. […] A solution of 10% BHI was then flowed through the reactor at a rate of 6.94 mL/min for an additional 24 hours. PEEK membranes were then removed and placed into 2 mL of CAMHB that contained a desired concentration of polyamine compound or antibiotic. The EBEC was defined as the concentration of antimicrobial required to reduce a biofilm from approximately 10^9 CFU/PEEK membrane to approximately 10^2 CFU/PEEK membrane in a 24-hour period.

biofilms of MRSA = conditions: understanding of the inventors; no own test described; cited from earlier work
L-929 cells (ATCC CCL-1) = assay: Minimal Essential Media (MEM) Elution cytotoxicity test; format: cell-based; conditions: Table 9A
Outline: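 L-929 cells (ATCC CCL-1) were seeded in multiwell plates and grown to roughly 80% confluence. Test article dilutions (1:2, 1:4, 1:8, 1:16) and control extracts were applied in triplicate and incubated 48±3 hours at 37±1° C. in 5±1% CO2. Wells were scored microscopically for morphological cytotoxicity on a 0–4 scale and averaged; Pass required grade not greater than 2 per USP <87>.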

biofilm formation = conditions: study by Losick and co-workers (Kolodkin-Gal et al., Cell 149 (2012)); cited from earlier work

Compound | biofilm dispersal effect (comparison) (biofilms of MRSA) | Results Pass/Fail (L-929 cells (ATCC CCL-1); 3.125 μg/mL) | Results Pass/Fail (L-929 cells (ATCC CCL-1); 6.25 μg/mL) | Results Pass/Fail (L-929 cells (ATCC CCL-1); 12.5 μg/mL) | Results Pass/Fail (L-929 cells (ATCC CCL-1); 25 μg/mL) | Results Pass/Fail (L-929 cells (ATCC CCL-1); 1.563 (unit not given)) | also measured
NC[C@H]1O[C@H](O[C@H]2[C@H](O)[C@@H](O[C@H]3O[C@H](CO)[C@@H](O)[C@H](N)[C@H]3O)[C@H](N)C[C@@H]2N)[C@H](N)C[C@@H]1O [Tobramycin, tobramycin, reference compound] |  |  |  |  |  |  | MIC (P. aeruginosa biofilms [1]): 100 µg/mL (≈ 214 µM); MIC (P. aeruginosa): 2 µg/mL (≈ 4.28 µM); MIC (P. aeruginosa biofilms [2]): 2000 µg/mL (≈ 4280 µM)
N=C(NCCCCCCNC(=N)NC(=N)Nc1ccc(Cl)cc1)NC(=N)Nc1ccc(Cl)cc1.O=C(O)[C@H](O)[C@@H](O)[C@H](O)[C@H](O)CO.O=C(O)[C@H](O)[C@@H](O)[C@H](O)[C@H](O)CO [chlorhexidine gluconate, reference compound] | not seen | Pass (receives a passing score (Pass) if the reactivity grade is not greater than grade 2 or a mild reactivity) | Pass (receives a passing score (Pass) if the reactivity grade is not greater than grade 2 or a mild reactivity) | Pass (receives a passing score (Pass) if the reactivity grade is not greater than grade 2 or a mild reactivity) | Fail (a numerical grade greater than 2 is considered a cytotoxic effect, or a failing score (Fail)) | Pass (receives a passing score (Pass) if the reactivity grade is not greater than grade 2 or a mild reactivity) | 
O=CCCCC=O [glutaraldehyde, Glutaraldehyde, reference compound] | not seen | Pass (receives a passing score (Pass) if the reactivity grade is not greater than grade 2 or a mild reactivity) | Fail (a numerical grade greater than 2 is considered a cytotoxic effect, or a failing score (Fail)) | Fail (a numerical grade greater than 2 is considered a cytotoxic effect, or a failing score (Fail)) | Fail (a numerical grade greater than 2 is considered a cytotoxic effect, or a failing score (Fail)) | Pass (receives a passing score (Pass) if the reactivity grade is not greater than grade 2 or a mild reactivity) | 
NCCCNCCCN [norspermidine, N-(3-aminopropyl)propane-1,3-diamine] |  |  |  |  |  |  | concentration inhibiting biofilm formation (biofilm formation): 25 µM
NCCCCNCCCN [spermidine] |  |  |  |  |  |  | concentration at which active (biofilm formation) (biofilm formation): ~1 mM
